Laboratory results as given in patent US20120077676A1, “Antifungal 1,2,4-Triazolyl Derivatives Having a 5-Sulfur Substituent” (BASF SE, priority 2009, published 2012).

Legend:
Phakopsora pachyrhizi = experiment: Curative control of soy bean rust on soy beans, green house test; assay type: in vivo, Phakopsora pachyrhizi on soy bean seedlings; settings: 300 ppm, curative spray after inoculation; assessed after 14 days; untreated plants 90% infected
Description: (§1) The spray solutions were prepared in several steps: A mixture of acetone and/or dimethylsulfoxide and the wetting agent/emulsifier Wettol, which is based on ethoxylated alkylphenoles, in a relation (volume) solvent-emulsifier of 99 to 1 was added to 25 mg of the compound to give a total of 10 ml. Water was then added to total volume of 100 ml. This stock solution was diluted with the described solvent-emulsifier-water mixture to the given concentration.
Leaves of pot-grown soy bean seedlings were inoculated with spores of Phakopsora pachyrhizi. To ensure the success of the artificial inoculation, the plants were transferred to a humid chamber with a relative humidity of about 95% and 20 to 24° C. for 24 h. The next day the plants were cultivated for 2 days in a greenhouse chamber at 23-27° C. and a relative humidity between 60 and 80%. Then the plants were sprayed to run-off with an aqueous suspension, containing the concentration of active ingredient as described below. The plants were allowed to air-dry. Then the trial plants were cultivated for 14 days in a greenhouse chamber at 23-27° C. and a relative humidity between 60 and 80%. The extent of fungal attack on the leaves was visually assessed as % diseased leaf area.

Puccinia recondite = experiment: Preventative control of brown rust on wheat, green house test; assay type: in vivo, Puccinia recondite on wheat seedlings; settings: 300 ppm, preventative spray one day before inoculation; assessed after 6 days in greenhouse; untreated plants 80% infected
Description: as §1
The first two developed leaves of pot-grown wheat seedling were sprayed to run-off with an aqueous suspension, containing the concentration of active ingredient or their mixture as described below. The next day the plants were inoculated with spores of Puccinia recondite. To ensure the success the artificial inoculation, the plants were transferred to a humid chamber without light and a relative humidity of 95 to 99% and 20 to 24° C. for 24 h. Then the trial plants were cultivated for 6 days in a greenhouse chamber at 20-24° C. and a relative humidity between 65 and 70%. The extent of fungal attack on the leaves was visually assessed as % diseased leaf area.

Botrytis cinerea = experiment: Activity against the grey mold Botrytis cinerea in the microtiterplate test (Botrci); assay type: cell-based; settings: 31 ppm active compound; absorption at 405 nm 7 days after inoculation; active compound-free control = 100%
Description: The active substances were formulated separately as a stock solution in dimethyl sulfoxide (DMSO) at a concentration of 10 000 ppm. The stock solutions were mixed according to the ratio, pipetted onto a micro titer plate (MTP) and diluted with water to the concentration given below. A spore suspension of Botrytis cinerea in an aqueous biomalt solution was then added. The plates were placed in a water vapor-saturated chamber at a temperature of 18° C. Using an absorption photometer, the MTPs were measured at 405 nm 7 days after the inoculation. The measured parameters were compared to the growth of the active compound-free control variant (100%) and the fungus-free and active compound-free blank value to determine the relative growth in % of the pathogens in the respective active compounds.

OC(CC1CC1)(Cn1ncnc1S)c1ccc(Cl)cc1 (stereo not shown) [I.A.1, 2-(4-Chloro-phenyl)-3-cyclopropyl-1-(5-mercapto-[1,2,4]triazol-1-yl)-propan-2-ol]
infection (% diseased leaf area) (Phakopsora pachyrhizi): 0% | infection (% diseased leaf area) (Puccinia recondite): 20%

OC(CC1CC1)(Cn1ncnc1S)c1ccc(Cl)cc1Cl (stereo not shown) [I.A.2, 2-(2,4-Dichloro-phenyl)-3-cyclopropyl-1-(5-mercapto-[1,2,4]triazol-1-yl)-propan-2-ol]
infection (% diseased leaf area) (Phakopsora pachyrhizi): 0% | infection (% diseased leaf area) (Puccinia recondite): 20%

CC(C1CCCCC1)C(O)(Cn1ncnc1S)c1ccc(Cl)cc1 (stereo not shown) [I.A.3, 2-(4-Chloro-phenyl)-3-cyclohexyl-1-(5-mercapto-[1,2,4]triazol-1-yl)-butan-2-ol]
infection (% diseased leaf area) (Phakopsora pachyrhizi): 0% | infection (% diseased leaf area) (Puccinia recondite): 20% | relative growth in % of the pathogen (Botrytis cinerea): 0%

CC(C1CC1)C(O)(Cn1ncnc1S)c1ccccc1 (stereo not shown) [I.A.4, 2-Phenyl-3-cyclopropyl-1-(5-mercapto-[1,2,4]triazol-1-yl)-butan-2-ol]
infection (% diseased leaf area) (Phakopsora pachyrhizi): 0% | infection (% diseased leaf area) (Puccinia recondite): 20%

CC(C1CC1)C(O)(Cn1ncnc1S)c1ccc(Cl)c(Cl)c1 (stereo not shown) [I.A.5, 2-(3,4-Dichloro-phenyl)-3-cyclopropyl-1-(5-mercapto-[1,2,4]triazol-1-yl)-butan-2-ol]
infection (% diseased leaf area) (Phakopsora pachyrhizi): 0% | infection (% diseased leaf area) (Puccinia recondite): 20%

CC(C1(C)CC1)C(O)(Cn1ncnc1S)c1ccc(Cl)cc1 (stereo not shown) [I.A.6, 2-(4-Chloro-phenyl)-3-(1-methylcyclopropyl)-1-(5-mercapto-[1,2,4]triazol-1-yl)-butan-2-ol]
infection (% diseased leaf area) (Phakopsora pachyrhizi): 0% | infection (% diseased leaf area) (Puccinia recondite): 20% | relative growth in % of the pathogen (Botrytis cinerea): 0%

CC(C1CCCC1)C(O)(Cn1ncnc1S)c1ccc(Cl)cc1 (stereo not shown) [I.A.7, 2-(4-Chloro-phenyl)-3-cyclopentyl-1-(5-mercapto-[1,2,4]triazol-1-yl)-butan-2-ol]
infection (% diseased leaf area) (Phakopsora pachyrhizi): 0% | infection (% diseased leaf area) (Puccinia recondite): 20%

CC(C1CC1)C(O)(Cn1ncnc1S)c1ccc(F)c(F)c1 (stereo not shown) [I.A.8, 2-(3,4-Difluoro-phenyl)-3-cyclopropyl-1-(5-mercapto-[1,2,4]triazol-1-yl)-butan-2-ol]
infection (% diseased leaf area) (Phakopsora pachyrhizi): 0% | infection (% diseased leaf area) (Puccinia recondite): 20%

CC(C1(C)CC1)C(O)(Cn1ncnc1S)c1ccccc1 (stereo not shown) [I.A.9, 2-Phenyl-3-(1-methylcyclopropyl)-1-(5-mercapto-[1,2,4]triazol-1-yl)-butan-2-ol]
infection (% diseased leaf area) (Phakopsora pachyrhizi): 0%
